Data: patent US12077503B2, “Substituted cyclic amides and their use as herbicides” (FMC CORPORATION, priority 2015, dated 2024)

Experiments:
Format in all cases: in vivo
[1] = test system: ryegrass, Italian (Italian ryegrass, Lolium multiflorum); test: Test A postemergence; details: Lolium multiflorum, post-emergence, 240 h, 125 g ai/ha, Postemergence; visual injury after approximately 10 d; 0 to 100 scale where 0 is no effect and 100 is complete control; read-out: Plant response rating, Ryegrass, Italian
Summary of the method: (§1)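 Preemergence directed soil spray on seeded pots, or postemergence application to plants 2–10 cm, one- to two-leaf. Solvent mixture non-phytotoxic, with surfactant. Scored ~10 d later, visually, 0–100 vs untreated.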

[2] = test system: blackgrass (Alopecurus myosuroides); test: Test A postemergence; details: Alopecurus myosuroides, post-emergence, 240 h, 125 g ai/ha, Postemergence; visual injury after approximately 10 d; 0 to 100 scale where 0 is no effect and 100 is complete control; read-out: Plant response rating, Blackgrass
Summary of the method: as §1

[3] = test system: wheat (Triticum aestivum); test: Test A postemergence; details: Triticum aestivum, post-emergence, 240 h, 125 g ai/ha, Postemergence; visual injury after approximately 10 d; 0 to 100 scale where 0 is no effect and 100 is complete control; read-out: Plant response rating, Wheat
Summary of the method: as §1

[4] = test system: corn (Zea mays); test: Test A postemergence; details: Zea mays, post-emergence, 240 h, 125 g ai/ha, Postemergence; visual injury after approximately 10 d; 0 to 100 scale where 0 is no effect and 100 is complete control
Summary of the method: as §1

[5] = test system: Galium (catchweed bedstraw, Galium aparine); test: Test A postemergence; details: Galium, post-emergence, 240 h, 125 g ai/ha, Postemergence; visual injury after approximately 10 d; 0 to 100 scale where 0 is no effect and 100 is complete control; read-out: Plant response rating, Galium
Summary of the method: as §1

[6] = test system: ragweed (common ragweed, Ambrosia elatior); test: Test A postemergence; details: Ambrosia artemisiifolia, post-emergence, 240 h, 125 g ai/ha, Postemergence; visual injury after approximately 10 d; 0 to 100 scale where 0 is no effect and 100 is complete control; read-out: Plant response rating, Ragweed
Summary of the method: as §1

[7] = test system: barnyardgrass (Echinochloa crus-galli); test: Test A postemergence; details: Echinochloa crus-galli, post-emergence, 240 h, 125 g ai/ha, Postemergence; visual injury after approximately 10 d; 0 to 100 scale where 0 is no effect and 100 is complete control; read-out: Plant response rating, Barnyardgrass
Summary of the method: as §1

[8] = test system: pigweed (Amaranthus retroflexus); test: Test A postemergence; details: Amaranthus retroflexus, post-emergence, 240 h, 125 g ai/ha, Postemergence; visual injury after approximately 10 d; 0 to 100 scale where 0 is no effect and 100 is complete control; read-out: Plant response rating, Pigweed
Summary of the method: as §1

[9] = test system: ryegrass, Italian (Italian ryegrass, Lolium multiflorum); test: Test A preemergence; details: Lolium multiflorum, pre-emergence, 240 h; for pest or weed control at 125 g/ha: 125 g ai/ha, Preemergence, visual injury rating after approximately 10 d, read-out: Ryegrass, Italian plant response rating (0 to 100 scale, 0 is no effect, 100 is complete control); for pest or weed control at 500 g/ha: 500 g ai/ha, preemergence, visual injury rating about 10 d after treatment, 0 to 100 scale (0 no effect, 100 complete control), read-out: Ryegrass, Italian plant response rating
Summary of the method: as §1

[10] = test system: giant foxtail (Setaria faberii); test: Test A preemergence; details: Setaria faberi, pre-emergence, 240 h; for pest or weed control at 125 g/ha: 125 g ai/ha, Preemergence, visual injury rating after approximately 10 d, read-out: Foxtail, Giant plant response rating (0 to 100 scale, 0 is no effect, 100 is complete control); for pest or weed control at 500 g/ha: 500 g ai/ha, preemergence, visual injury rating about 10 d after treatment, 0 to 100 scale (0 no effect, 100 complete control), read-out: Foxtail, Giant plant response rating
Summary of the method: as §1

[11] = test system: ragweed (common ragweed, Ambrosia elatior); test: Test A preemergence; details: Ambrosia artemisiifolia, pre-emergence, 240 h; for pest or weed control at 125 g/ha: 125 g ai/ha, Preemergence, visual injury rating after approximately 10 d, read-out: Ragweed plant response rating (0 to 100 scale, 0 is no effect, 100 is complete control); for pest or weed control at 500 g/ha: 500 g ai/ha, preemergence, visual injury rating about 10 d after treatment, 0 to 100 scale (0 no effect, 100 complete control), read-out: Ragweed plant response rating
Summary of the method: as §1

[12] = test system: barnyardgrass (Echinochloa crus-galli); test: Test A preemergence; details: Echinochloa crus-galli, pre-emergence, 240 h; for pest or weed control at 125 g/ha: 125 g ai/ha, Preemergence, visual injury rating after approximately 10 d, read-out: Barnyardgrass plant response rating (0 to 100 scale, 0 is no effect, 100 is complete control); for pest or weed control at 500 g/ha: 500 g ai/ha, preemergence, visual injury rating about 10 d after treatment, 0 to 100 scale (0 no effect, 100 complete control), read-out: Barnyardgrass plant response rating
Summary of the method: as §1

[13] = test system: pigweed (Amaranthus retroflexus); test: Test A preemergence; details: Amaranthus retroflexus, pre-emergence, 240 h; for pest or weed control at 125 g/ha: 125 g ai/ha, Preemergence, visual injury rating after approximately 10 d, read-out: Pigweed plant response rating (0 to 100 scale, 0 is no effect, 100 is complete control); for pest or weed control at 500 g/ha: 500 g ai/ha, preemergence, visual injury rating about 10 d after treatment, 0 to 100 scale (0 no effect, 100 complete control), read-out: Pigweed plant response rating
[14] = test system: Kochia (Kochia scoparia); test: Test A preemergence; details: Bassia scoparia, pre-emergence, 240 h; for pest or weed control at 125 g/ha: 125 g ai/ha, Preemergence, visual injury rating after approximately 10 d, read-out: Kochia plant response rating (0 to 100 scale, 0 is no effect, 100 is complete control); for pest or weed control at 500 g/ha: 500 g ai/ha, preemergence, visual injury rating about 10 d after treatment, 0 to 100 scale (0 no effect, 100 complete control), read-out: Kochia plant response rating
Summary of the method: as §1

For `Cc1ccc([C@H]2CCNC(=O)[C@@H]2C(=O)Nc2cccc(F)c2F)cc1` [Compound 973], the pest or weed control at 125 g/ha [1] was 20%, the pest or weed control at 125 g/ha [2] was 60% and the plant injury at 125 g/ha [3] was 0%. For the same molecule, the Corn plant response rating (crop injury, 0 = no effect, 100 = complete kill) at 125 g/ha [4] was 0%, the pest or weed control at 125 g/ha [5] was 50% and the pest or weed control at 125 g/ha [6] was 0%. For the same molecule, the pest or weed control at 125 g/ha [7] was 30%, the pest or weed control at 125 g/ha [8] was 0% and the pest or weed control at 125 g/ha [9] was 0%. The pest or weed control at 500 g/ha [9] was 30%, the pest or weed control at 125 g/ha [10] was 90% and the pest or weed control at 500 g/ha [10] was 90%. The pest or weed control at 125 g/ha [11] was 0%, the pest or weed control at 500 g/ha [11] was 70% and the pest or weed control at 125 g/ha [12] was 90%. The pest or weed control at 500 g/ha [12] was 90%, the pest or weed control at 125 g/ha [13] was 0% and the pest or weed control at 500 g/ha [13] was 0%. The pest or weed control at 125 g/ha [14] was 0% and the pest or weed control at 500 g/ha [14] was 60%.
In the case of `COc1ccc([C@H]2CN(C)C(=O)[C@@H]2C(=O)Nc2ccccc2SC)cc1C(F)(F)F` [Compound 991], the pest or weed control at 125 g/ha [1] is reported as 0%, the pest or weed control at 125 g/ha [2] is reported as 0% and the plant injury at 125 g/ha [3] is reported as 0%. The Corn plant response rating (crop injury, 0 = no effect, 100 = complete kill) at 125 g/ha [4] was 0%, the pest or weed control at 125 g/ha [5] was 0% and the pest or weed control at 125 g/ha [6] was 0%. It also gave a pest or weed control at 125 g/ha [7] of 30%, a pest or weed control at 125 g/ha [8] of 0% and a pest or weed control at 125 g/ha [9] of 0%. It also gave a pest or weed control at 500 g/ha [9] of 50%, a pest or weed control at 125 g/ha [10] of 90% and a pest or weed control at 500 g/ha [10] of 90%. The pest or weed control at 125 g/ha [11] was 0%, the pest or weed control at 500 g/ha [11] was 30% and the pest or weed control at 125 g/ha [12] was 70%. It also gave a pest or weed control at 500 g/ha [12] of 90%, a pest or weed control at 125 g/ha [13] of 60% and a pest or weed control at 500 g/ha [13] of 50%. It also gave a pest or weed control at 125 g/ha [14] of 0% and a pest or weed control at 500 g/ha [14] of 60%.
Molecule `CN1C[C@H](c2cc(F)cc(F)c2)[C@@H](C(=O)Nc2cc(O)ccc2F)C1=O` [Compound 992] has a pest or weed control at 125 g/ha [1] of 0%, a pest or weed control at 125 g/ha [2] of 0% and a plant injury at 125 g/ha [3] of 0%. It also gave a Corn plant response rating (crop injury, 0 = no effect, 100 = complete kill) at 125 g/ha [4] of 0%, a pest or weed control at 125 g/ha [5] of 0% and a pest or weed control at 125 g/ha [6] of 0%. The pest or weed control at 125 g/ha [7] was 0%, the pest or weed control at 125 g/ha [8] was 0% and the pest or weed control at 125 g/ha [9] was 0%. For the same molecule, the pest or weed control at 500 g/ha [9] was 0%, the pest or weed control at 125 g/ha [10] was 0% and the pest or weed control at 500 g/ha [10] was 0%. For the same molecule, the pest or weed control at 125 g/ha [11] was 0%, the pest or weed control at 500 g/ha [11] was 0% and the pest or weed control at 125 g/ha [12] was 0%. For the same molecule, the pest or weed control at 500 g/ha [12] was 0%, the pest or weed control at 125 g/ha [13] was 0% and the pest or weed control at 500 g/ha [13] was 0%. It also gave a pest or weed control at 125 g/ha [14] of 0% and a pest or weed control at 500 g/ha [14] of 0%.
